Reference: patent EP0133550B1, “Process for producing arphamenine in high yield” (MICROBIAL CHEMISTRY RESEARCH FOUNDATION, priority 1983, dated 1985)

Biological target: T1, aminopeptidase B (Rattus norvegicus, UniProt O09175)
T1 sequence (O09175 1-650): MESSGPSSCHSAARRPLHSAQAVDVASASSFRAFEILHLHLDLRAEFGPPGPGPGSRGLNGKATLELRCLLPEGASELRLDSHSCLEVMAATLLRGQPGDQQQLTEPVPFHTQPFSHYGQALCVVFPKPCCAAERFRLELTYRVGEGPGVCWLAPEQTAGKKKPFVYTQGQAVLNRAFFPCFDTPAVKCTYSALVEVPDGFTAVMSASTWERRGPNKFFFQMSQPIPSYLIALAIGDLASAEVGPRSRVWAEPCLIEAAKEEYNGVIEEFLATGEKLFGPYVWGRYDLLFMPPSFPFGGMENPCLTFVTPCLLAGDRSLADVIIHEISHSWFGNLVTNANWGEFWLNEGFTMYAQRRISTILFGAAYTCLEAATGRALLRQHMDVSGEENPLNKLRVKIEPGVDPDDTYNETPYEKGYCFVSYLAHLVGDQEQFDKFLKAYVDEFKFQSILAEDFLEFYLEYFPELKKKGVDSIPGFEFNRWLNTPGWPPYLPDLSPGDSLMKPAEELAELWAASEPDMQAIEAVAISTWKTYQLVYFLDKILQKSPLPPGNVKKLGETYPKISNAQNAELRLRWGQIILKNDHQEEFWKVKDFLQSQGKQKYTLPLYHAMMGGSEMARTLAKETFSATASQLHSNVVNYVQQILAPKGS
Assay: Inhibition of aminopeptidase B (improved method of Hoppusu et al., arginine-ß-naphthylamide substrate, absorbance at 525 nm)
Format: biochemical
Details: 0.002 M arginine-ß-naphthylamide, pH 7.0, 30 minutes at 37°C; read-out: IC50 (concentration which inhibited 50% of aminopeptidase B activity) (converted)
Procedure: The amount (potency) of arphamenine was determined by an improved method based on the method of Hoppusu et al. (V.K. HOPPUSU, K.K. MAKINEN & G.G. GLENNER, Archieves of Biochemistry and Biophysics 114, 557,1966). In detail, 0.5 ml of 0.1 M tris-hydrochloric acid buffer solution (pH 7.0) and 0.25 ml of a solution containing the specimen were added to 0.25 ml of 0.002 M arginine-ß-naphthylamide. The resulting mixed solution was heated for 3 minutes at 37°C. To the heated solution was added 5 pl of a solution of aminopeptidase B that had been purified by the use of DEAE-cellulose according to the enzyme- purification technique of Hoppusu et al.
The mixture was reacted for 30 minutes at 37°C, followed by adding to the reaction mixture 1 ml of 1.0 M acetic acid buffer solution (pH 4.2) containing Fast Garnet GBC@ (0-aminoazotoluene diazonium salt) in a concentration of 1 mg/ml and the surfactant Tween 20@ in a concentration of 10%.
The resulting mixture was allowed to stand for 15 minutes at room temperature, and measured for adsorbance (a) at 525 nm. Simultaneously, a blank absorbance (b) was obtained using an arphamenine- free buffer solution only. Percent inhibition of aminopeptidase B was calculated from the equation [(b-a)/b] x 100.

N=C(N)NCCCC(N)C(=O)CC(Cc1ccc(O)cc1)C(=O)O (stereo not shown) [arphamenine B] gave an IC50 of 5.95 nM.
